US11896589B2, “Diazinyl amino acridines and medical uses thereof” (MyCural Therapeutics AB, priority 2018, dated 2024)

Experiments:
[1] = target: T1, MYC:MAX heterodimer (MYCbHLHZip, labelled MAXbHLHZip) (Homo sapiens, UniProt P01106); assay: Assay 1A MYC:MAX heterodimer MST assay; assay type: binding; conditions: thermophoresis shift of 1 μM labelled MAXbHLHZip with 1 μM MYCbHLHZip
T1 construct: MYC:MAX heterodimer formation assay based on recombinant proteins
Description: FIG. 1: A) Microscale thermophoresis (MST) of fluorescently labeled MAX in a MYC:MAX heterodimer formation assay based on recombinant proteins. MST of labeled MAXbHLHZip after titration of Example 1 pre-incubated with 1 μM MYCbHLHZip, or with 1 μM MAXbHLHZip. Fluorescence intensity of labeled MAXbHLHZip relative DMSO was plotted against Example 1 concentration. B) Surface plasmon resonance (SPR) of MYC:MAX heterodimer formation assay. MAXbHLHZip was immobilized by an amino coupling procedure to a CM5 sensor chip. MYCbHLHZip pre-incubated with or without compound (as indicated) was injected over MAX for 180 seconds, allowed to dissociate for 240 seconds and regenerated. […] C) MYC binding response units (RU) plotted against Example 1 concentration from which an IC50 of Example 1 inhibition of MYC:MAX heterodimer formation is determined, summary of four experiments. […]
MST measures the movement of fluorescent labelled molecules in a microscopic temperature gradient. Changes in charge, size or of the hydration shell of the fluorescent molecule affects its migration in the temperature gradient, which can be detected by the fluorescence of the molecule (See Seidel et al., Microscale thermophoresis quantifies biomolecular interactions under previously challenging conditions, METHODS (2013)). […] Capillaries were scanned to measure initial fluorescence of compound. […]

MYCbHLHZip = target: T2, MYCbHLHZip (Homo sapiens, UniProt P01106); assay: Assay 2A MYC binding MST assay; conditions: approximately 200 nM labelled MYC, compound titrated
T2 construct: An amino coupling procedure was used to immobilize MYCbHLHZip protein on a CM5 sensor chip
Description: FIG. 2: A) MST assay of Example 1 effect on MYC and MAX, respectively. Recombinant MYC bHLHZip and MAX bHLHZip proteins were titrated, respectively, in a fixed concentration (3 μM) of Example 1. Changes in fluorescence were measured and normalized to control (buffer). Data are shown as mean±standard deviation of 6-8 biological repeats. B) MST assay of MYC (reverse MST). A fixed concentration of 200 nM labeled MYC was mixed with different concentrations of Example 1 as indicated. Data are shown as mean±standard deviation of 5 biological repeats. C) MST assay of Example 2 effect on MYC. D) MST assay of MYC with a control compound (non-binder).
Assay 2A. MYC Binding MST Assay
The MYC MST assay was performed as described above (Biological example 1—Assay 1A), except that the fluorescent molecule was either protein or Example 1. The example compound was kept at a fix concentration of 3 μM in PBS supplemented with 0.05% Tween-20, while MYCbHLHZip or MAX was titrated. The migration of example compound changed at MYC protein concentrations above 1 μM, but was unaffected with MAX up to highest concentration tested (15 μM) (FIG. 2A). […]

[2] = target: T3, MYC:MAX (MYC-GLuc-C + MAX-GLuc-N) in HEK293 cells (Homo sapiens, UniProt P01106); assay: Assay 3C GLuc complementation assay; assay type: cell-based
T3 construct: expressed in transfected cells; host or cells: HEK293 (also COS-7)
Description: FIG. 4: A) Endogenous MYC:MAX (upper panel) and FRA1:JUN (lower panel) interactions as visualized as fluorescent red dots by isPLA. Nuclei were counterstained with DAPI (blue). Cells were treated with 10 μM of indicated compounds for 16 hours and subjected to isPLA using pairs of MYC and MAX and of FRA1 and JUN antibodies, respectively. As negative control, primary antibody pairs but only one oligo-conjugated secondary antibody was used. B) Quantification of MYC:MAX and C) FRA1:JUN isPLA, representing an average number of nuclear dots per cell from three microscopic fields normalized to corresponding values for DMSO-treated cells. […] 1st-4th lanes from top; coimmunoprecipitated MAX, immunoprecipitated MYC, total levels of MAX and ACTIN, respectively, as determined by western blot analysis. E) MYC:MAX GLuc assay in cells. […] 24 hours later cells were treated with […] of Example 1, Example 2 and control compound for 16 hours and thereafter analyzed in a dual luciferase assay. The ratio of Gaussia/Firefly luciferase luminescence were calculated and normalized to DMSO-treated cells.
The protein fragment complementation assay using the Gaussia luciferase (GLuc) has been described (Remy, I. & Michnick, S. W. A highly sensitive protein-protein interaction assay based on Gaussia luciferase. Nat Methods 3, 977-979, doi:10.1038/nmeth979 (2006)). […] 24 hours later cells were treated with compound or DMSO. After another 17 hours the cells were harvested and lyzed in passive lysis buffer (Promega) supplemented with complete protease inhibitor (Roche). After 60 min incubation at room temperature 20 μM D-luciferin was added (substrate of Firefly luciferase) and luminescence was measured in a Lumat LB9501 (Berthold) or OmegaFluostar (BMG Labtech) luminometer. Directly after, the Gaussia luciferase substrate Coelenterazine (Promega) was added to a final concentration of 20 μM and the luciferase activity was measured. The ratio between Gaussia and Firefly luciferase values were calculated and normalized to DMSO-treated control cells.

T3 sequence (P01106 whole entry): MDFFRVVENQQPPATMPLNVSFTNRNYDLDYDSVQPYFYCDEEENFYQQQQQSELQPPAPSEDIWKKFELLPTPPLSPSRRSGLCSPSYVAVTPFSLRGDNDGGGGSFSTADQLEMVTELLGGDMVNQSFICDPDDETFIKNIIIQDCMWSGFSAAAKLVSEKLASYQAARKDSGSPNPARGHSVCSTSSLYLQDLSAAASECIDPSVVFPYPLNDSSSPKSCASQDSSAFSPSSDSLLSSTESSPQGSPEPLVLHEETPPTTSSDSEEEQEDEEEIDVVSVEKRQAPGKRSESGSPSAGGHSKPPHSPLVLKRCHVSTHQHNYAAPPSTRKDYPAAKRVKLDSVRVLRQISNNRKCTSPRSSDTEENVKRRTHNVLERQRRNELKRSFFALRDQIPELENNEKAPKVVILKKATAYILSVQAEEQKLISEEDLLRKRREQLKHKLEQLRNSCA
T1 sequence (P01106 368-449 limits assumed, one chain of several): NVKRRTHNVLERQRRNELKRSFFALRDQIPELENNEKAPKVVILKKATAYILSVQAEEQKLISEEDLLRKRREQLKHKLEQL
T2 sequence (P01106 368-449 limits assumed): as the sequence (P01106 368-449 limits assumed, one chain of several) above

Structure (SMILES): CCOc1ccc2nc3cc(/N=N/c4ccc(N)nc4N)ccc3c(N)c2c1 [Example 1, 3-((9-amino-7-ethoxyacridin-3-yl)diazenyl)pyridine-2,6-diamine sulphate hydrate]
- Kd [1]: 4.3 µM
- compound concentration affecting migration of MYC (reverse MST) (MYCbHLHZip): 200 to 400 nM
- inhibition at 10 µM ([2]; HEK293): 50%
- IC50 ([2]; exogenous MYC:MAX): 10 µM
